In ChEMBL document CHEMBL1154854, “Synthesis and antioxidant properties of enone core based dendrimers with carbazole as surface group” (Eur J Med Chem, 2010):
Converted amounts (≈) assume the structure as drawn. The source made the active and inactive calls. The rule behind the calls is not given here.

Columns and labels:
[1] = test system: Radical scavenging activity; experiment: Antioxidant activity assessed as DPPH radical scavenging activity after 30 mins by spectrometric assay method; assay type: functional
[2] = test system: Radical scavenging activity; experiment: Antioxidant activity assessed as DPPH radical scavenging activity at 20 to 1000 ug/mL after 30 mins by spectrometric assay method; assay type: functional

Row | IC50 [1] [mg/L] | Structure (SMILES) | Activity [2] | Activity [1]
1 | 48 (≈ 15.6 µM) | O=C1/C(=C/c2ccc(OCc3cc(OCc4cc(OCc5ccc(-n6c7ccccc7c7ccccc76)cc5)cc(OCc5ccc(-n6c7ccccc7c7ccccc76)cc5)c4)cc(OCc4cc(OCc5ccc(-n6c7ccccc7c7ccccc76)cc5)cc(OCc5ccc(-n6c7ccccc7c7ccccc76)cc5)c4)c3)cc2)CCC/C1=C\c1ccc(OCc2cc(OCc3cc(OCc4ccc(-n5c6ccccc6c6ccccc65)cc4)cc(OCc4ccc(-n5c6ccccc6c6ccccc65)cc4)c3)cc(OCc3cc(OCc4ccc(-n5c6ccccc6c6ccccc65)cc4)cc(OCc4ccc(-n5c6ccccc6c6ccccc65)cc4)c3)c2)cc1 | Active | 
2 |  | O=C1/C(=C/c2ccc(OCc3cc(OCc4ccc(-n5c6ccccc6c6ccccc65)cc4)cc(OCc4ccc(-n5c6ccccc6c6ccccc65)cc4)c3)cc2)CCC/C1=C\c1ccc(OCc2cc(OCc3ccc(-n4c5ccccc5c5ccccc54)cc3)cc(OCc3ccc(-n4c5ccccc5c5ccccc54)cc3)c2)cc1 |  | Dose-dependent effect
3 | 25 (≈ 58 µM) | Cc1c(C)c2c(c(C)c1O)CC[C@@](C)(CCC[C@H](C)CCC[C@H](C)CCCC(C)C)O2 [ALPHA-TOCOPHEROL] |  | 
4 | 48 (≈ 273 µM) | O=C1O[C@H]([C@@H](O)CO)C(O)=C1O [ASCORBIC ACID] |  | 

Row | Structure (SMILES) | IC50 [1] [mg/L] | Activity [2] | Activity [1]
5 | COc1ccc(O)c(C(C)(C)C)c1.COc1ccc(O)cc1C(C)(C)C [BUTYLATED HYDROXYANISOLE] | 29 |  | 
